Source: ChEMBL document CHEMBL4342479, “Reactive Oxygen Species (ROS)-Activatable Prodrug for Selective Activation of ATF6 after Ischemia/Reperfusion Injury” (ACS Med Chem Lett, 2020)
Activity calls are given as the source filed them. The calls are words filed in the database; no cut-off is given here.

How the values were obtained:
[1] = biological target: T1, Cyclic AMP-dependent transcription factor ATF-6 alpha (Rattus norvegicus) (UniProt G3V909); test: Activation of ATF6 in NRVM isolated from Sprague-Dawley rat assessed as increase in GRP78 expression at 10 uM using compound pre-activated with hydrogen peroxide for 8 hrs prior to NRVM treatment and measured after 16 hrs by SYBR green dye-based qRT-PCR analysis
T1 sequence (whole entry): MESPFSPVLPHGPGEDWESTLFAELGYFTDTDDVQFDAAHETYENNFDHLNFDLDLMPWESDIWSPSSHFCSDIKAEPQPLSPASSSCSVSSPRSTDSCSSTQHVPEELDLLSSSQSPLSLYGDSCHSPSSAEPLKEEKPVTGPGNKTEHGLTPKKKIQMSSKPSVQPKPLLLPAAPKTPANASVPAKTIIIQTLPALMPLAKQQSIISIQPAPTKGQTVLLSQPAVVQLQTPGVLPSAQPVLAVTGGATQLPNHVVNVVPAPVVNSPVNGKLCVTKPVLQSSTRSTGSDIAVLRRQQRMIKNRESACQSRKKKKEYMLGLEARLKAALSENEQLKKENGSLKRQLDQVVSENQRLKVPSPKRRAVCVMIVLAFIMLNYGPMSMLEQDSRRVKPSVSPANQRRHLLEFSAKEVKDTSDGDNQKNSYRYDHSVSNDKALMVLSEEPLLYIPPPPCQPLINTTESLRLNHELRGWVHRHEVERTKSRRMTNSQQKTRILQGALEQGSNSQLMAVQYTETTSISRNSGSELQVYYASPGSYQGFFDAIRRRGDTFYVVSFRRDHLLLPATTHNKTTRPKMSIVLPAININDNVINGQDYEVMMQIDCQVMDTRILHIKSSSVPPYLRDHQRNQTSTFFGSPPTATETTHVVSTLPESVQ

[2] = biological target: T1, Cyclic AMP-dependent transcription factor ATF-6 alpha (Rattus norvegicus); test: Activation of ATF6 in NRVM isolated from Sprague-Dawley rat assessed as increase in catalase expression at 10 uM using compound pre-activated with hydrogen peroxide for 8 hrs prior to NRVM treatment and measured after 16 hrs by SYBR green dye-based qRT-PCR analysis
[3] = biological target: T1, Cyclic AMP-dependent transcription factor ATF-6 alpha (Rattus norvegicus); test: Activation of ATF6 in simulated-ischemia-reperfusion NRVM isolated from Sprague-Dawley rat assessed as increase in cell viability by measuring media LDH content at 10 uM followed by ischemia simulation for 8 hrs and subsequent reperfusion and compound treatment for 24 hrs by LDH assay
Cytochrome P450 1A2 [4] = biological target: T2, Cytochrome P450 1A2 (Homo sapiens, UniProt P05177); test: Drug metabolism assessed as recombinant CYP1A2 (unknown origin)-mediated oxidation incubated for 24 hrs in presence of NADP+ by LC-MS analysis; format: ADME; details: recombinant enzyme
T2 sequence (P05177 whole entry): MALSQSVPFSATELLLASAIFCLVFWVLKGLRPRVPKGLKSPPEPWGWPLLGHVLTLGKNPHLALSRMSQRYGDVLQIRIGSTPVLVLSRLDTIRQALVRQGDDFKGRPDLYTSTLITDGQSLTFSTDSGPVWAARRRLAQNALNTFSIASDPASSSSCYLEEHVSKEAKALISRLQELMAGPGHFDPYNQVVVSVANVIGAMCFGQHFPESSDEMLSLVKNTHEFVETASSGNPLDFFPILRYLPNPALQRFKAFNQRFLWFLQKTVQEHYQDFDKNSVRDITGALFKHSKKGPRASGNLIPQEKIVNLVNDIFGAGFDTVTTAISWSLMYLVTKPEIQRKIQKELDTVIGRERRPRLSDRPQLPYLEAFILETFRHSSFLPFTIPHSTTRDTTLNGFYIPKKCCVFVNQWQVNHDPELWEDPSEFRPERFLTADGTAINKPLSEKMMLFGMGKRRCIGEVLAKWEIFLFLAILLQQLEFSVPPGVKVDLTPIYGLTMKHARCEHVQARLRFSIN

Rattus norvegicus = organism: Rattus norvegicus; test: Cytoprotection against hydrogen peroxide-induced toxicity in NRVM isolated from Sprague-Dawley rat assessed as increase in cell viability at 10 uM pretreated for 24 hrs followed by hydrogen peroxide challenge measured after 8 hrs by MTT assay; format: functional
[5] = biological target: T1, Cyclic AMP-dependent transcription factor ATF-6 alpha (Rattus norvegicus); test: Activation of ATF6 in simulated-ischemia-reperfusion NRVM isolated from Sprague-Dawley rat assessed as increase in cell viability by measuring media LDH content at 10 uM followed by ischemia simulation for 8 hrs and subsequent reperfusion and compound treatment for 24 hrs under normoxia condition by calcein-AM green dye based fluorescence microscopy
[6] = Drug metabolism assessed as intact compound incubated for 24 hrs in presence of NADP+ and absence of recombinant CYP1A2 by LC-MS analysis
[7] = biological target: T1, Cyclic AMP-dependent transcription factor ATF-6 alpha (Rattus norvegicus); test: Activation of ATF6 in NRVM isolated from Sprague-Dawley rat assessed as increase in catalase expression at 10 uM measured after 16 hrs by SYBR green dye-based qRT-PCR analysis
[8] = biological target: T1, Cyclic AMP-dependent transcription factor ATF-6 alpha (Rattus norvegicus); test: Activation of ATF6 in NRVM isolated from Sprague-Dawley rat assessed as increase in GRP78 expression at 10 uM measured after 16 hrs by SYBR green dye-based qRT-PCR analysis
[9] = Drug degradation in HBS buffer assessed as half life at 1 mM at pH 7.3 and 37 degree C by HPLC or LC-MS analysis; format: physicochemical
Cytochrome P450 1A2 [10] = biological target: T2, Cytochrome P450 1A2; test: Substrate activity at recombinant CYP1A2 (unknown origin) assessed as [4-[[4-methyl-2-(3-phenylpropanoylamino)phenoxy]methyl]phenyl]boronic acid formation incubated for 24 hrs in presence of NADP+ by LC-MS analysis; format: ADME; details: recombinant enzyme
[11] = Stability of compound in HBS buffer at 1 mM at pH 7.3 and 37 degree C by HPLC or LC-MS analysis; format: physicochemical; details: pH 7.3, 1000 µM

Structure (SMILES) | Activity [1] | Activity [2] | Activity [3] | Drug metabolism (Cytochrome P450 1A2 [4]) | Activity (Rattus norvegicus) | Activity [5] | Drug metabolism [6] | Activity [7] | Activity [8] | half-life at 1000 µM [9] [days] | Drug metabolism (Cytochrome P450 1A2 [10]) | Stability [11]
Cc1ccc(OCCc2ccc(B3OC(C)(C)C(C)(C)O3)cc2)c(NC(=O)CCc2ccccc2)c1 | inactive | inactive | – | – | – | – | – | – | – | – | – | –
Cc1ccc(O)c(NC(=O)CCc2ccccc2)c1 | – | – | Active | Metabolite_Detected | Active | Active | Metabolite not detected | Active | Active | – | – | –
Cc1ccc(OCc2ccc(B3OC(C)(C)C(C)(C)O3)cc2)c(NC(=O)CCc2ccccc2)c1 | Active | Active | Active | – | Active | Active | – | – | – | 25.8 | Metabolite_Notdetected | Stable
